# Test results as given in patent publication US20130197085A1, “AGENT AND METHOD FOR STABILIZING MEMBRANE PROTEIN” (priority 2007, published 2013).
# System: MDCKII cells expressing GFP
# Experiment: Transcellular transport assay of [^3H] TC across MDCKII monolayer, GFP control cells
# Type: cell-based
# Conditions: 24 hours
# Method: MDCKII cells were dispersed on a Transwell membrane insert (pore size: […]; Falcon) of a 24-well plate, resulting in a density of 1.5×10^5 cells/insert. Two days after the culture, the confluent cells were infected with recombinant adenoviruses having the cDNAs of wild-type, E297G and D482G BSEPs, and GFP, at 50 MOI. […] After completion of the treatment for 24 hours, a transcellular transport assay was carried out (see Mita et al., Am J Physiol Gastrointest Liver Physiol 290: G550-G556, 2006).
# The apparent efflux clearance across the apical membrane (PSapical) was calculated by dividing a steady rate of the transcellular transport of [^3H] TC for 2 hours by the intracellular concentration of the [^3H] TC at the termination of the experiment (2 hours later).
smiles,measurement,setting,value
"O=C(O)CCCc1ccccc1 [4PBA, 4-phenylbutyric acid]",efflux of [^3H] TC from the apical side to the base side,1 mM,did not influence
same,efflux of [^3H] TC from the base side to the apical side,1 mM,such effects were not observed
same,PSapical value,4PBA treatment 1 mM,no changes
